Test results as given in ChEMBL document CHEMBL1201862, “PubChem BioAssay data set” (2004).
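Interpolation was linear, between the two tested concentrations surrounding the appropriate level; five concentrations were tested over 48 hours in 96-well plates. GI50 = concentration required for 50% inhibition of growth.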 Activity calls are given as the source filed them. Cut-off read from the data, not from the text of the source: active = GI50 up to about 1.1 µM and inactive = higher.

Columns and labels:
Assay in all cases: NCI-60 cell line screen, 48 h
U-251 = system: U-251
SNB-75 = system: SNB-75
UACC-257 = system: UACC-257
M14 = system: M14
SK-MEL-28 = system: SK-MEL-28
IGROV-1 = system: IGROV-1
HOP-92 = system: HOP-92
HT-29 = system: HT-29
NCI-H460 = system: NCI-H460
A498 = system: A498
OVCAR-5 = system: OVCAR-5
KM-20L2 = system: KM-20L2
ACHN = system: ACHN
NCI-H226 = system: NCI-H226

Measured: GI50

C=CCNC(=O)ON1C(=O)CCC1=O
inactive: U-251 > 100 µM | SNB-75 > 100 µM | UACC-257 > 100 µM | M14 > 100 µM | SK-MEL-28 > 100 µM | IGROV-1 > 100 µM | HOP-92 > 100 µM | HT-29 > 100 µM | NCI-H460 > 100 µM | A498 > 100 µM | OVCAR-5 > 100 µM | KM-20L2 > 100 µM | ACHN > 100 µM

CC(=O)O[C@H]1CCC2[C@@H]3CCC4C(=O)c5oncc5C[C@]4(C)C3CC[C@@]21C (stereo partly drawn)
inactive: U-251 > 100 µM | SNB-75 50.2 µM | UACC-257 > 100 µM | M14 > 100 µM | SK-MEL-28 > 100 µM | IGROV-1 > 100 µM | HOP-92 > 100 µM | NCI-H226 > 10 µM | HT-29 > 100 µM | NCI-H460 > 100 µM | A498 21.7 µM | OVCAR-5 > 100 µM | KM-20L2 > 100 µM | ACHN 63 µM

Nc1ccc(C(=O)NN2C(=O)C(Cl)C2c2ccccc2)cc1 (stereo not drawn)
inactive: U-251 > 100 µM | SNB-75 > 100 µM | UACC-257 > 100 µM | M14 > 100 µM | SK-MEL-28 > 100 µM | IGROV-1 > 100 µM | HOP-92 > 100 µM | NCI-H226 > 100 µM | HT-29 > 100 µM | NCI-H460 > 100 µM | A498 > 100 µM | OVCAR-5 > 100 µM | KM-20L2 > 100 µM | ACHN > 100 µM

CCOC(=O)Nc1ccc(S(=O)(=O)I)cc1.CCOC(=O)Nc1ccc(S(=O)(=O)I)cc1.CNC(=O)N=O.NC(=O)OCCCl
inactive: U-251 > 100 µM | SNB-75 21.9 µM | UACC-257 74.6 µM | M14 > 100 µM | SK-MEL-28 67 µM | IGROV-1 > 100 µM | HOP-92 40.5 µM | HT-29 69 µM | NCI-H460 > 100 µM | A498 > 100 µM | KM-20L2 > 100 µM | ACHN > 100 µM

C/C(C=O)=C1\C(O)C[C@]1(C)C1CC(C)(C)CC1O (stereo partly drawn)
inactive: U-251 > 100 µM | UACC-257 > 100 µM | M14 47.3 µM | SK-MEL-28 > 100 µM | HOP-92 74.1 µM | NCI-H226 > 100 µM | HT-29 > 100 µM | NCI-H460 > 100 µM | A498 > 100 µM | OVCAR-5 > 100 µM | KM-20L2 > 100 µM | ACHN > 100 µM

CN(C)c1ccc(N=O)c(O)c1.CN(C)c1ccc(N=O)c(O)c1.[SiH4]
inactive: U-251 8.09 µM | SNB-75 12.7 µM | UACC-257 14 µM | M14 11.7 µM | SK-MEL-28 13.2 µM | IGROV-1 20.9 µM | HOP-92 3.82 µM | NCI-H226 16.4 µM | HT-29 6.67 µM | A498 21.3 µM | OVCAR-5 24 µM | KM-20L2 4.65 µM | ACHN 2.67 µM
